From US9089605B2, “Quinone derivatives, pharmaceutical compositions, and uses thereof” (Indiana University Research and Technology Corporation, priority 2007, dated 2015)
“And” between values parts separate entries of the source, which are not always exact repeats. Equal values may be shown once. “Also recorded” adds a separate entry of the source.

Experiments:
Ape1 = Ape1 (Homo sapiens, UniProt P27695); test: Enzymatic redox assay (EMSA, AP-1 DNA binding); format: biochemical; conditions: for IC50: EMSA, reduced Ape1, oxidized nuclear extracts (Hey-C2 cells), AP-1 DNA probe; for activity compared with the original carboxylic acids: hydroxyethylamides of 1 and 43a
Chain of Ape1 (P27695 whole entry): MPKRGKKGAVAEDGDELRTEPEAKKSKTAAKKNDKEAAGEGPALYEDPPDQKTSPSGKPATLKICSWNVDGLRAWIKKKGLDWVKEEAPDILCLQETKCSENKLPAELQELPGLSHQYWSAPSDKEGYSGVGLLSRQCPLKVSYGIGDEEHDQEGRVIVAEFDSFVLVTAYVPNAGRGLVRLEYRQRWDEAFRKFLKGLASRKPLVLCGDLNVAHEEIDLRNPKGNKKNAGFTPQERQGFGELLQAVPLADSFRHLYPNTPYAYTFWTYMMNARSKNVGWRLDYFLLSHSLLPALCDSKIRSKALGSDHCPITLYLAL

cells = test: Growth inhibition assay (MTS); format: cell-based; conditions: for GI50: MTS, compound treatment 24 or 72 h, read-out: Cell Killing (GI50)
Description: Growth inhibitory data was also collected for all the compounds tested in the redox assay. Following the procedure of Fishel et al, cells were aliquoted into 96 well plates at a concentration of 2-4,000 cells/well in triplicate and allowed to adhere overnight. Cells were then treated with compound for either 24 or 72 h. 3-(4-5-Dimethylthiazol-2-yl)-5-(3-carboxymethoxyphenyl)-2-(4-sulfophenyl)-2H-tetrazolium salt (MTS) was added to the cells following compound treatment and the cells were incubated for an additional 4 hours at 37° C. After incubation with MTS the plates were measured for absorbance at 490 nm. The values were standardized to wells containing media alone.

[1] = Qualitative solubility in solvents; format: physicochemical; conditions: listed solvents

With `C[C@@H]1NC(=O)N[C@@H]1CCCCCC(=O)NCCCCCCNC(=O)OC(C)(C)C` (hydrate or solvate) [Compound 111, N—(N′-tert-butoxycarbonyl-6-aminohexyl)-6-[(4R,5S)-5-methyl-imidazolidin-2-on-4-yl]hexanamide] the melting point was 85 to 87 °C.

Work on `CC1(C(=O)O)OC1C1=C(Cl)C(=O)c2ccccc2C1=O` (mixture of isomers) [Compound 71, 3-(3-chloro-1,4-naphthoquinon-2-yl)-2-epoxy-2-methylpropionic acid] yielded an IC50 (Ape1) of 4 µM and a GI50 (cells) of 10 µM.

For `CC(CC1=C(Br)C(=O)c2ccccc2C1=O)C(=O)O` (racemic) [Compound 69b, (2R/S)-3-(3-bromo-1,4-naphthoquinon-2-yl)-2-methylpropionic acid], the IC50 (Ape1) was 5 µM and the GI50 (cells) was 15 µM.

Compound `CCCCCCCCC/C(=C\C1=C(C)C(=O)C(OC)=C(OC)C1=O)C(=O)O` [Compound 1, (E)-3-(4,5-dimethoxy-2-methyl-3,6-dioxocyclohexa-1,4-dienyl)-2-nonylpropenoic acid, reference compound] has a GI50 (cells) of 35 µM.

`COC1=C(OC)C(=O)C(/C=C/C(=O)O)=C(C)C1=O` [Compound 10a, (E)-3-(4,5-dimethoxy-2-methyl-3,6-dioxocyclohexa-1,4-dienyl)-propenoic acid] showed an IC50 (Ape1) of 40 µM and a GI50 (cells) of 250 µM.

For `COC1=C(OC)C(=O)C(/C=C(\C)C(=O)O)=C(C)C1=O` [Compound 10b, (E)-3-(4,5-dimethoxy-2-methyl-3,6-dioxocyclohexa-1,4-dienyl)-2-methylpropenoic acid], the IC50 (Ape1) was 3 to 15 µM and 3 µM, the GI50 (cells) was 130 µM and the melting point was 134 to 136 °C.

Compound `CC/C(=C\C1=C(C)C(=O)C(OC)=C(OC)C1=O)C(=O)O` [Compound 10c, (E)-3-(4,5-dimethoxy-2-methyl-3,6-dioxocyclohexa-1,4-dienyl)-2-ethylpropenoic acid] has a melting point of 124 to 131 °C.

For `CCC/C(=C\C1=C(C)C(=O)C(OC)=C(OC)C1=O)C(=O)O` [Compound 10d, (E)-3-(4,5-dimethoxy-2-methyl-3,6-dioxocyclohexa-1,4-dienyl)-2-propylpropenoic acid], the melting point was 95 to 99 °C.

With `CCCC/C(=C\C1=C(C)C(=O)C(OC)=C(OC)C1=O)C(=O)O` [Compound 10e, (E)-3-(4,5-dimethoxy-2-methyl-3,6-dioxocyclohexa-1,4-dienyl)-2-butylpropenoic acid] the IC50 (Ape1) was 3 to 15 µM and 15 µM, the GI50 (cells) was 85 µM and the melting point was 54 to 55 °C.

For `COC1=C(OC)C(=O)C(/C=C(\C)C(=O)O)=C(Cl)C1=O` [Compound 23, (E)-3-(2-chloro-4,5-dimethoxy-3,6-dioxocyclohexa-1,4-dienyl)-2-methylpropenoic acid], the IC50 (Ape1) was 2.5 µM, the “cell-based activity superior to the methyl derivative 10b, factor” value (cells; GI50 ratio) was 3 and the GI50 (cells) was 45 µM. For the same compound, the melting point was 183 to 185 °C.

In the case of `C/C(=C\C1=CC(=O)c2ccccc2C1=O)C(=O)O` [Compound 30a, (E)-3-(1,4-naphthoquinon-2-yl)-2-methylpropenoic acid], the IC50 (Ape1) is reported as 2.5 µM and the GI50 (cells) is reported as 20 µM.

With `CCC/C(=C\C1=CC(=O)c2ccccc2C1=O)C(=O)O` [Compound 30b, (E)-3-(1,4-naphthoquinon-2-yl)-2-propylpropenoic acid] the melting point was 156 to 160 °C.

In the case of `CC1=C(/C=C(\C)C(=O)O)C(=O)c2ccccc2C1=O` [Compound 35a, (E)-3-(3-methyl-1,4-naphthoquinon-2-yl)-2-methylpropenoic acid], the IC50 (Ape1) is reported as 15 µM, the GI50 (cells) is reported as 45 µM and the melting point is reported as 195 to 196 °C.

For `CCCC/C(=C\C1=C(C)C(=O)c2ccccc2C1=O)C(=O)O` [Compound 35b, (E)-3-(3-methyl-1,4-naphthoquinon-2-yl)-2-butylpropenoic acid], the IC50 (Ape1) was 25 µM, the GI50 (cells) was 40 µM and the melting point was 119 to 121 °C.

Work on `CCCCCCCCC/C(=C\C1=C(C)C(=O)c2ccccc2C1=O)C(=O)O` [Compound 35c, (E)-3-(3-methyl-1,4-naphthoquinon-2-yl)-2-nonylpropenoic acid] yielded a melting point of 64 to 66 °C.

Compound `C/C(=C\C1=C(Br)C(=O)c2ccccc2C1=O)C(=O)O` [Compound 39a, (E)-3-(3-bromo-1,4-naphthoquinon-2-yl)-2-methylpropenoic acid] has an IC50 (Ape1) of 2 µM and a GI50 (cells) of 12.5 µM.

For `CCC/C(=C\C1=C(Br)C(=O)c2ccccc2C1=O)C(=O)O` [Compound 39b, (E)-3-(3-bromo-1,4-naphthoquinon-2-yl)-2-propylpropenoic acid], the melting point was 145 °C (dec.).

Compound `C/C(=C\C1=C(Cl)C(=O)c2ccccc2C1=O)C(=O)O` [Compound 43a, (E)-3-(3-chloro-1,4-naphthoquinon-2-yl)-2-methylpropenoic acid] has an IC50 (Ape1) of 1 µM, a GI50 (cells) of 15 µM and a melting point of 229 to 230 °C.

With `CCC/C(=C\C1=C(Cl)C(=O)c2ccccc2C1=O)C(=O)O` [Compound 43b, (E)-3-(3-chloro-1,4-naphthoquinon-2-yl)-2-propylpropenoic acid] the melting point was 164 °C (dec.).

`C/C(=C\C1=C(F)C(=O)c2ccccc2C1=O)C(=O)O` [Compound 52, (E)-3-(3-fluoro-1,4-naphthoquinon-2-yl)-2-methylpropenoic acid] gave an IC50 (Ape1) of 4 µM and a GI50 (cells) of 50 µM.

In the case of `COC1=C(/C=C(\C)C(=O)O)C(=O)c2ccccc2C1=O` [Compound 55, (E)-3-(3-methoxy-1,4-naphthoquinon-2-yl)-2-methylpropenoic acid], the IC50 (Ape1) is reported as 0.5 µM, the GI50 (cells) is reported as 40 µM and the melting point is reported as 205 °C (dec.).

In the case of `CSC1=C(/C=C(\C)C(=O)O)C(=O)c2ccccc2C1=O` [Compound 58, (E)-3-(3-methylsulfanyl-1,4-naphthoquinon-2-yl)-2-methylpropenoic acid], the IC50 (Ape1) is reported as 1 µM, the GI50 (cells) is reported as 30 µM and the melting point is reported as 195 to 196 °C.

In the case of `COCC/C(=C\C1=C(C)C(=O)c2ccccc2C1=O)C(=O)O` [Compound 62a, (E)-3-(3-methyl-1,4-naphthoquinon-2-yl)-2-methoxyethylpropenoic acid], the IC50 (Ape1) is reported as 10 µM, the GI50 (cells) is reported as 30 µM and the melting point is reported as 147 to 148 °C.

Compound `COCC/C(=C\C1=C(Br)C(=O)c2ccccc2C1=O)C(=O)O` [Compound 62b, (E)-3-(3-bromo-1,4-naphthoquinon-2-yl)-2-methoxyethylpropenoic acid] has an IC50 (Ape1) of 0.5 µM, a GI50 (cells) of 25 µM and a melting point of 168 to 172 °C.

With `COCC/C(=C\C1=C(Cl)C(=O)c2ccccc2C1=O)C(=O)O` [Compound 62c, (E)-3-(3-chloro-1,4-naphthoquinon-2-yl)-2-methoxyethylpropenoic acid] the IC50 (Ape1) was 3 µM, the GI50 (cells) was 30 µM and the melting point was 160 °C (dec.).

`COCC/C(=C\C1=C(C)C(=O)C(OC)=C(OC)C1=O)C(=O)O` [Compound 64, (E)-3-(4,5-dimethoxy-2-methyl-3,6-dioxocyclohexa-1,4-dienyl)-2-methoxyethylpropenoic acid] gave an IC50 (Ape1) of 10 µM, a GI50 (cells) of 200 µM and a melting point of 104 to 106 °C.

In the case of `O=C(O)CCC1=C(Br)C(=O)c2ccccc2C1=O` [Compound 69a, 3-(3-Bromo-1,4-naphthoquinon-2-yl)-propionic acid], the IC50 (Ape1) is reported as 5 µM, the GI50 (cells) is reported as 15 µM and the melting point is reported as 156 to 157 °C.

In the case of `CCCCCCCCC/C(=C\C1=C(C)C(=O)C(OC)=C(OC)C1=O)C(=O)NCCO` [Compound 72, (E)-N-(2-hydroxyethyl)-3-(3,4-dimethoxy-2-methyl-3,6-dioxocyclohexa-1,4-dienyl)-2-nonylpropenamide], the IC50 (Ape1) is reported as 10 µM, the “activity compared with the original carboxylic acids” value (Ape1) is reported as “comparable in activity to the original carboxylic acids” and the GI50 (cells) is reported as 35 µM.

For `C/C(=C\C1=C(Cl)C(=O)c2ccccc2C1=O)C(=O)NCCO` [Compound 73, (E)-N-(2-hydroxyethyl)-3-(3-chloro-1,4-dioxonaphthoquinon-2-yl)-2-methylpropenamide], the “activity compared with the original carboxylic acids” value (Ape1) was “comparable in activity to the original carboxylic acids” and the GI50 (cells) was 7.5 µM.

In the case of `CC(C)(C)OC(=O)NCCCCCCNC(=O)CCCC[C@H]1[C@H]2NC(=O)N[C@H]2CS1(=O)=O` [Compound 110, N—(N′-tert-butoxycarbonyl-6-aminohexyl)-5-((1R,5S,6S)-3,7,7-trioxo-7-thia-2,4-diazabicyclo[3.3.0]oct-6-yl)pentanamide], the “solubility (qualitative)” value [1] is reported as “Insoluble: CH2Cl2, acetone, NaOH aq; also recorded: Mildly Soluble MeOH, EtOH; also recorded: Soluble: DMSO” and the melting point is reported as 213 to 215 °C.

For `C[C@@H]1NC(=O)N[C@@H]1CCCCCC(=O)NCCCCCCNC(=O)OC(C)(C)C` [Compound 111, N—(N′-tert-butoxycarbonyl-6-aminohexyl)-6-[(4R,5S)-5-methyl-imidazolidin-2-on-4-yl]hexanamide], the “solubility (qualitative)” value [1] was “Insoluble: EtOAc, Et2O, H2O, NaOH aq; also recorded: Soluble: acetone, CH2Cl2”.

`COC(=O)/C(C)=C/C1=C(Cl)C(=O)c2ccccc2C1=O` [Compound E-44a] showed an IC50 (Ape1) of 1 µM and a GI50 (cells) of 17.5 µM.

`C/C(=C/C1=C(Cl)C(=O)c2ccccc2C1=O)C(=O)O` [Compound Z-43a, (2Z)-3-(3-chloro-1,4-naphthoquinon-2-yl)-2-methylpropenoic acid] showed an IC50 (Ape1) of 1.5 µM, a GI50 (cells) of 30 µM and a melting point of 166 to 169 °C.

For `COC(=O)/C(C)=C\C1=C(Cl)C(=O)c2ccccc2C1=O` [Compound Z-44a, Methyl (2Z)-3-(3-chloro-1,4-naphthoquinon-2-yl)-2-methylpropenoate], the IC50 (Ape1) was 2 µM and the GI50 (cells) was 20 µM.

In the case of `C[C@@H]1NC(=O)N[C@@H]1CCCCCC(=O)O` [Desthiobiotin, 6-[(4R,5S)-5-methyl-imidazolidin-2-on-4-yl]hexanoic acid, reference compound], the “solubility (qualitative)” value ([1]; listed as 93) is reported as “Insoluble: CH2Cl2, H2O, acetone; also recorded: Soluble: NaOH aq”.
